Experimental data as given in patent US10118955B2, “C-terminal fragments of glucagon-like peptide-1 (GLP-1)” (The General Hospital Corporation, priority 2008, dated 2018).
Blank lines part the entries; values can stand above or below the molecule they belong to. Ends that are not written are not given here.

Experiments:
[1] = tested on: white adipocytes; settings: Rodrigue-Way et al. 2007; cited from earlier work
[2] = tested on: FASN mRNA; assay: liver mRNA levels by QPCR in mice infused with GLP-1(28-36)amide; format: in vivo; settings: 28-36 infusion 3 weeks
Description: (§1) Mice were placed on VHFD or a LFD control diets at 6 weeks of age. Continuous infusion of GLP-1(28-36)amide, 6.5 nanomoles/24 hrs/KgBW via osmopumps was started at ten weeks of age and was continued for 3 weeks. Body weights were measured before and during these three weeks. Values are means and S.D.s of four mice in each group.
(§2) An examination of gene expression profiles in the livers of GLP-1(28-36)amide treated mice was performed. Measurements of mRNA levels by quantitative polymerase chain reaction (QPCR) in livers of mice given a very high fat diet (VHFD) or a normal low fat diet (LFD) for four weeks followed by subcutaneous osmopump infusions of either vehicle or GLP-1(28-36)amide for three additional weeks. Data in Table 2, below, show changes in mRNA levels in LFD and VHFD groups of mice comparing vehicle versus GLP-1(28-36)amide where vehicle is set at a value of 1.0. […] GLP-1(28-36)amide appears to regulate PEPCK, PPARg, CD36, SCD1, SREBP1c, FASN, and PPARa.

[3] = tested on: PGC1α mRNA; assay: as above; format: in vivo; settings: 28-36 infusion 3 weeks
Description: as §1, §2

[4] = tested on: SREBP-1c mRNA; assay: as above; format: in vivo; settings: 28-36 infusion 3 weeks; for SREBP-1c mRNA/QPCR Fold Difference compared to LFD: normalized to LFD mice as 1.0, parentheses = down-regulation
Description: as §1, §2

[5] = tested on: PPARα mRNA; assay: as above; format: in vivo; settings: 28-36 infusion 3 weeks; for PPARα mRNA/QPCR Fold Difference compared to LFD: normalized to LFD mice as 1.0, parentheses = down-regulation
Description: as §1, §2

[6] = tested on: CPT1 mRNA; assay: as above; format: in vivo; settings: 28-36 infusion 3 weeks; for CPT1 mRNA/QPCR Fold Difference compared to LFD: normalized to LFD mice as 1.0, parentheses = down-regulation
Description: as §1, §2

[7] = tested on: PEPCK (phosphopyruvate carboxykinase) mRNA; assay: as above; format: in vivo; settings: 28-36 infusion 3 weeks; for PEPCK mRNA/QPCR Fold Difference compared to LFD: normalized to LFD mice as 1.0, parentheses = down-regulation
Description: as §1, §2

[8] = tested on: CD36 mRNA; assay: as above; format: in vivo; settings: 28-36 infusion 3 weeks; for CD36 mRNA/QPCR Fold Difference compared to LFD: normalized to LFD mice as 1.0, parentheses = down-regulation
Description: as §1, §2

[9] = tested on: ACOX mRNA; assay: as above; format: in vivo; settings: 28-36 infusion 3 weeks; for ACOX mRNA/QPCR Fold Difference compared to LFD: normalized to LFD mice as 1.0, parentheses = down-regulation
Description: as §1, §2

[10] = tested on: PPARγ mRNA; assay: as above; format: in vivo; settings: 28-36 infusion 3 weeks; for PPARγ mRNA/QPCR Fold Difference compared to LFD: normalized to LFD mice as 1.0, parentheses = down-regulation
Description: as §1, §2

[11] = tested on: SCD-1 mRNA; assay: as above; format: in vivo
Description: as §1, §2

[12] = tested on: phosphoACC (pACC, phospho-AcetylCoA carboxylase); assay: liver ACC / phosphoACC protein expression after infusion; format: in vivo; settings: mice fed a very high fat diet, infusion for three weeks
Text: FIGS. 4A-4C are bar graphs showing regulation of PEPCK (4A) and ACC Protein Expression (both the phosphorylated (pACC) and unphosphorylated (ACC) forms (4B) in the presence and absence of the GLP-1(28-36) peptide, as well as the effect of the peptide on ratios of phosphorylated to unphosphorylated ACC (4C).
This is important since ACC is highly regulated in the liver and is the key enzyme responsible for the synthesis of malonyl CoA from AcetylCoA and is a precursor of fatty acid synthesis and a potent inhibitor of CPT1 (carnitine palmitoyl transferase 1), the rate limiting enzyme in the transport of fatty acids into the beta oxidation machinery of mitochondria. This means that GLP-1(28-36) is exerting an inhibition on fatty acid oxidation (beta oxidation). The increase in SCD1 expression in response to infusion of GLP-1(28-36)amide is consistent with an increase in ACC activity since SCD1 is believed to inhibit AMP kinase which is an inhibitor of ACC. The mechanism currently proposed for the prevention of weight gain by GLP-1(28-36)amide in mice fed a very high fat diet involves a dual effect of GLP-1(28-36)amide on adipose tissue to enhance lipolysis and fat burning and inhibit lipogenesis. The increased fatty acid cycling and hypertriglyceridemia enhances hepatic fatty acid oxidation with consequent coupled enhanced gluconeogenesis driven by the enhanced fat burning. […]

[13] = infusion in mice fed a very high fat diet: body weight, adipogenesis, food intake; format: in vivo; settings: for weight gain: mice on VHFD (60% fat), continuous infusion 6.5 nanomoles/24 hrs/KgBW via osmopumps, 3 weeks
Description: as §1
Glucagon-like peptide-1 (GLP-1) is an insulinotropic peptide that stimulates glucose-dependent insulin secretion (Kieffer and Habener, Endocr Rev. 20(6):876-913 (1999)). […] The neutral endopeptidase, NEP 24.11 is proposed to be responsible for the degradation of GLP-1, much as the Dpp4 had been thought of as a peptide degrading enzyme for GLP-1 (Plamboeck et al., Diabetologia. 48(9):1882-90 (2005)). The carboxyl-terminal sequence of GLP-1, […]amide, GLP-1(28-36)amide, is a major peptide product of the cleavage of GLP-1 by NEP 24.11 (Hupe-Sodmann et al., Regul Pept. 58(3):149-56 (1995)). Therefore GLP-1(28-36)amide was infused into mice both fed a normal chow diet (LFD) and a very high fat diet (VHFD) for three weeks.

[14] = tested on: hepatic glucose production (gluconeogenesis); settings: Elahi et al. 2008; cited from earlier work
[15] = tested on: isolated hepatocytes; assay: hepatic gluconeogenesis in isolated hepatocytes (preliminary studies); format: cell-based; settings: high (micromolar) concentrations
[16] = Ban et al. 2008; cited from earlier work
[17] = tested on: 3T3-L1 adipocytes; assay: lipolysis (glycerol release) in 3T3-L1 adipocytes; format: cell-based; settings: 1-30 nM on a background of 10 nM isoproterenol, 60 min
Description: Preliminary studies on the effect of GLP-1(9-36) on lipolysis were also performed in isolated mouse hepatocytes and 3T3-L1 adipocytes. Glycerol release into the culture medium was used as a measure of active lipolysis, and isoproterenol serves as a known stimulator of lipolysis. In these experiments GLP-1(9-36)amide was added dose-wise (1-30 nM) on a background of 10 nM isoproterenol. Incubations were for 60 min.

[18] = molecular target: GLP-1 GPCR (Homo sapiens, UniProt P43220); settings: (nM); cited from earlier work
[19] = LFD mice, normalized to LFD mice as 1.0, parentheses = down-regulation
[20] = LFD mice, vehicle set at 1.0, parentheses = down-regulation
[21] = VHFD mice, VHFD vehicle set at 1.0, parentheses = down-regulation
[22] = high fat fed mice, infusion for three weeks

GLP-1 GPCR, sequence (P43220 24-463): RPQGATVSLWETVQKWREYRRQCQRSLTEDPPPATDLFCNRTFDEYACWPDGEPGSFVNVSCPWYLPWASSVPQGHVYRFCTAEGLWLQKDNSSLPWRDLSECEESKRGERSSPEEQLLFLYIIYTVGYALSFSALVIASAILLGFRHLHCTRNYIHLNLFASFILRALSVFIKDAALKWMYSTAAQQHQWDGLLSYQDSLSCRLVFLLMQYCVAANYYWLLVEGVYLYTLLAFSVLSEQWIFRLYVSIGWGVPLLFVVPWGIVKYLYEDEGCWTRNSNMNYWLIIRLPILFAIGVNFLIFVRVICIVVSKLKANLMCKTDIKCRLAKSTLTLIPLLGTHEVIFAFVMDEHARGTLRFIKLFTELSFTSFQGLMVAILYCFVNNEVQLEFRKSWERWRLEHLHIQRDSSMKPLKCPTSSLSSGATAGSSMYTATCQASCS

Molecule: Cc1[nH]c2ccccc2c1C[C@@H](NC(=O)[C@@H](N)Cc1cnc[nH]1)C(=O)N[C@@H](C)C(=O)N[C@@H](Cc1c[nH]c2ccccc12)C(=O)N[C@H](Cc1ccccc1)C(=O)N[C@@H](CCCCN)C(N)=O [hexarelin, H-W(Me)-A-W-F-Kamide]
mitochondrial biogenesis and fat burning phenotype [1]: promote mitochondrial biogenesis and a fat burning phenotype

PEPCK mRNA/QPCR Fold Difference compared to LFD ([7]; LFD mice): 1.6 fold
PEPCK mRNA/QPCR Fold Difference compared to PEPTIDE (28-36) [7, 20]: 1.6 fold
PEPCK mRNA/QPCR Fold Difference compared to PEPTIDE (28-36) [7, 21]: 1.5 fold
PEPCK mRNA/QPCR Fold Difference compared to LFD ([7]; VHFD mice): 1.6 fold
liver phosphoACC (pACC) [12]: decrease
Molecule: FIAWLVKGR-NH2 [28-36]
FASN mRNA/QPCR Fold Difference compared to LFD [2, 19]: 1 fold
FASN mRNA/QPCR Fold Difference compared to PEPTIDE (28-36) [2, 20]: 1 fold
FASN mRNA/QPCR Fold Difference compared to PEPTIDE (28-36) [2, 21]: 1.2 fold
PGC1α mRNA/QPCR Fold Difference compared to LFD [3, 19]: 1.35 fold
PGC1α mRNA/QPCR Fold Difference compared to PEPTIDE (28-36) [3, 20]: 1.4 fold
PGC1α mRNA/QPCR Fold Difference compared to PEPTIDE (28-36) [3, 21]: 1.2 fold
SREBP-1c mRNA/QPCR Fold Difference compared to LFD ([4]; LFD mice): 1 fold
SREBP-1c mRNA/QPCR Fold Difference compared to PEPTIDE (28-36) [4, 20]: 1.1 fold
SREBP-1c mRNA/QPCR Fold Difference compared to PEPTIDE (28-36) [4, 21]: 1.3 fold
SREBP-1c mRNA/QPCR Fold Difference compared to LFD ([4]; VHFD mice): 1 fold
PPARα mRNA/QPCR Fold Difference compared to LFD ([5]; LFD mice): 1.2 fold
PPARα mRNA/QPCR Fold Difference compared to PEPTIDE (28-36) [5, 20]: 1.2 fold
PPARα mRNA/QPCR Fold Difference compared to PEPTIDE (28-36) [5, 21]: 1.35 fold
PPARα mRNA/QPCR Fold Difference compared to LFD ([5]; VHFD mice): 1.9 fold
CPT1 mRNA/QPCR Fold Difference compared to LFD ([6]; LFD mice): 1.2 fold
CPT1 mRNA/QPCR Fold Difference compared to PEPTIDE (28-36) [6, 20]: 1.21 fold
CPT1 mRNA/QPCR Fold Difference compared to PEPTIDE (28-36) [6, 21]: 1.02 fold
CPT1 mRNA/QPCR Fold Difference compared to LFD ([6]; VHFD mice): 1.74 fold
CD36 mRNA/QPCR Fold Difference compared to LFD ([8]; LFD mice): 1.25 fold
CD36 mRNA/QPCR Fold Difference compared to PEPTIDE (28-36) [8, 20]: 1.25 fold
CD36 mRNA/QPCR Fold Difference compared to PEPTIDE (28-36) [8, 21]: 1.7 fold
CD36 mRNA/QPCR Fold Difference compared to LFD ([8]; VHFD mice): 1.7 fold
ACOX mRNA/QPCR Fold Difference compared to LFD ([9]; LFD mice): 1.4 fold
ACOX mRNA/QPCR Fold Difference compared to PEPTIDE (28-36) [9, 20]: 1.4 fold
ACOX mRNA/QPCR Fold Difference compared to PEPTIDE (28-36) [9, 21]: 1.04 fold
ACOX mRNA/QPCR Fold Difference compared to LFD ([9]; VHFD mice): 1.2 fold
PPARγ mRNA/QPCR Fold Difference compared to LFD ([10]; LFD mice): 1.54 fold
PPARγ mRNA/QPCR Fold Difference compared to PEPTIDE (28-36) [10, 20]: 1.54 fold
PPARγ mRNA/QPCR Fold Difference compared to PEPTIDE (28-36) [10, 21]: 1.4 fold
PPARγ mRNA/QPCR Fold Difference compared to LFD ([10]; VHFD mice): 2.2 fold
SCD1 expression ([11]; in response to infusion of GLP-1(28-36)amide): increase
SCD-1 mRNA/QPCR Fold Difference compared to PEPTIDE (28-36) ([11]; liver, VHFD mice, 28-36 infusion 3 weeks, VHFD vehicle set at 1.0, parentheses = down-regulation): 3.05 fold
adipogenesis [13, 22]: completely prevented
food intake [13, 22]: without observable differences
weight gain ([13]; listed as GLP-1(28-36)): attenuates weight gain
weight gain ([13]; listed as GLP-1(28-36)amide): completely prevented

Molecule: GLP-1(9-36)amide
hepatic glucose production (gluconeogenesis) [14]: inhibits
actions on hepatic gluconeogenesis [15]: only weak actions
cardioprotective actions [16]: exerts cardioprotective actions
lipolysis (glycerol release into the culture medium) [17]: stimulates lipolysis in 3T3-L1 adipocytes in a dose dependent manner

Molecule: exendin-4
binding affinity to the GLP-1 GPCR [18]: high affinity
